Source: PMC5761210 (Journal of Pharmaceutical Analysis, 2014)
Read-outs that look alike come from different tables or passages of the source.

Experiments:
[1] = EFSA report; cited from earlier work
Salmonella typhimurium = conditions: cited from earlier work
[2] = no reference given; cited from earlier work
[3] = type: in vitro ADME, human; conditions: for Qmax,24 h (maximal absorption: receptor fluid + epidermis + dermis after 24 h): percentage of the applied dose
[4] = vehicle 50% Glycerol, mean±RSD (%)

For `CC(=O)CO` [acetol, 1-hydroxypropan-2-one], the genotoxic in-vivo [1] is given as “not likely”, the “Ames tests (in-vitro mutagenic properties)” value (Salmonella typhimurium) is given as “positive” and the “log Pow” value [2] is given as −0.78. For the same compound, the “dose applied cumulatively found in the receptor chamber” value ([3]; after 24 h, over the investigated vehicles) was 1.3–10.0%, the “Dm (diffusion coefficient)” value ([3]; vehicle 50% EtOH, mean±RSD (%)) was 1.49±41.8 10^−4 cm^2/h and the “Kp (permeability coefficient)” value ([3]; vehicle 50% EtOH, mean±RSD (%)) was 3.91±45.1 10^−3 cm/h. The Lag time ([3]; vehicle 50% EtOH, mean±RSD (%)) was 2.14 ± 51.8 h, the “Qmax,24 h (maximal absorption: receptor fluid + epidermis + dermis after 24 h)” value (“Qmax,24 h” below) ([3]; vehicle 50% EtOH, mean±RSD (%)) was 7.28±29.0% and the “Dm (diffusion coefficient)” value [3, 4] was 0.73±22.4 10^−4 cm^2/h. For the same compound, the “Kp (permeability coefficient)” value [3, 4] was 0.78±40.3 10^−3 cm/h, the Lag time [3, 4] was 4.39 ± 28.7 h and the “Qmax,24 h” value [3, 4] was 1.75±39.0%. The “Dm (diffusion coefficient)” value ([3]; vehicle 50% PG, mean±RSD (%)) was 1.07±103.0 10^−4 cm^2/h, the “Kp (permeability coefficient)” value ([3]; vehicle 50% PG, mean±RSD (%)) was 1.30±79.0 10^−3 cm/h and the Lag time ([3]; vehicle 50% PG, mean±RSD (%)) was 5.65 ± 70.9 h. The “Qmax,24 h” value ([3]; vehicle 50% PG, mean±RSD (%)) was 2.94±76.0%, the “Jss (steady-state flux)” value ([3]; vehicle H2O (pure water), 5% acetol (m/V), 500 µL infinite dose, mean±RSD (%)) was 68.3±21.2 µg/cm^2/h and the “Dm (diffusion coefficient)” value ([3]; vehicle H2O, mean±RSD (%)) was 1.28±49.6 10^−4 cm^2/h. For the same compound, the “Kp (permeability coefficient)” value ([3]; vehicle H2O, mean±RSD (%)) was 1.30±21.2 10^−3 cm/h, the Lag time ([3]; vehicle H2O, mean±RSD (%)) was 2.95 ± 71.0 h and the “Qmax,24 h” value ([3]; vehicle H2O, mean±RSD (%)) was 3.37±11.7%. For the same compound, the “Kp (permeability coefficient)” value ([3]; vehicle PG (propylene glycol/water 50/50, V/V)) was 0.0013 cm/h, the “Kp (permeability coefficient)” value ([3]; vehicle glycerol (glycerol/water 50/50, V/V)) was 0.000778 cm/h and the “Kp (permeability coefficient)” value ([3]; vehicle water) was 0.0013 cm/h.
